# Measured values reported in US20240108740A1, “THERAPEUTIC COMPOSITIONS INCLUDING SPN10 AND USES THEREOF” (Stealth BioTherapeutics Inc., priority 2022, published 2024).
# Residues, ends and D or L forms follow the SMILES beside them.
# How the values were obtained:
# [1] = system: isolated mouse liver mitochondria; assay: Example 10: uptake into isolated mitochondria; assay type: in vitro ADME
# Method: To isolate mitochondria from mouse liver, mice will be sacrificed by decapitation. The liver will be removed and rapidly placed into chilled liver homogenization medium. The liver will be finely minced using scissors and then homogenized by hand using a glass homogenizer.
# The homogenate will be centrifuged for 10 minutes at 1000×g at 4° C. The supernatant will be aspirated and transferred to polycarbonate tubes and centrifuged again for 10 minutes at 3000×g, 4° C. The resulting supernatant will be removed, and the fatty lipids on the side-wall of the tube will be removed.
# The pellet will be resuspended in liver homogenate medium and the homogenization repeated twice. The final purified mitochondrial pellet will be resuspended in medium. Protein concentration in the mitochondrial preparation will be determined by the Bradford procedure.
# Approximately 1.5 mg mitochondria in 400 μL buffer will be incubated with [^3H] peptide conjugates; [^3H] aromatic-cationic peptides (an equivalent molar dose of aromatic-cationic peptide based on the concentration of the aromatic-cationic peptide administered in the peptide conjugate treatment group); [^3H] […] The mitochondria will then be centrifuged and the amount of radioactivity will be determined in the mitochondrial fraction and buffer fraction. […]
# [2] = system: Isolated guinea pig hearts; assay: Example 15: organ preservation in cardioplegic solution; conditions: added to cardioplegic solution; 90 minutes ischemia, 60 minutes reperfusion
# Method: Isolated guinea pig hearts will be perfused in a retrograde fashion with an oxygenated Krebs-Henseleit solution at 34° C. After 30 minutes of stabilization, the hearts will be perfused with a cardioplegic solution (CPS; St. Thomas) alone or in the presence of peptide conjugates (100 nM); aromatic-cationic peptides (an equivalent molar dose of aromatic-cationic peptide based on the concentration of the aromatic-cationic peptide administered in the peptide conjugate treatment group); SPN10(s) (an equivalent molar dose of SPN10 based on the concentration of SPN10 administered in the peptide conjugate treatment group); or SPN10(s) in combination with aromatic-cationic peptides (e.g., an equivalent molar dose of SPN10 based on the concentration of SPN10 administered in the peptide conjugate treatment group and an equivalent molar dose of aromatic-cationic peptide based on the concentration of aromatic-cationic peptide administered in the peptide conjugate treatment group) for 3 minutes. Global ischemia will then be induced by complete interruption of coronary flow and maintained for 90 minutes. Reperfusion will be performed for 60 minutes with oxygenated Krebs-Henseleit solution. Contractile force, heart rate, and coronary flow will be monitored continuously throughout the procedure.
compound,measurement,setting,value
"N=C(N)NCCC[C@H](NC(=O)[C@@H](N)Cc1c[nH]c2ccccc12)C(=O)N[C@@H](Cc1c[nH]c2ccccc12)C(=O)N[C@@H](CCCCN)C(N)=O [SPN10, H-L-Trp-L-Arg-L-Trp-L-Lys-NH2] (H-WRWK-NH2)",concentration in mitochondria compared with buffer,[1]; 5-30 minutes at 37° C.,higher than in the buffer
same,amount associated with the mitochondrial pellet after FCCP,[1]; FCCP,decrease the amount
same,contractile function after prolonged ischemia,[2],significantly enhance contractile function
